Measurements as given in paper PMC9583330, “Quinazoline-4(3H)-one-7-carboxamide Derivatives as Human Soluble Epoxide Hydrolase Inhibitors with Developable 5-Lipoxygenase Activating Protein Inhibition” (ACS Omega, 2022).
Read-outs that look alike come from different tables or passages of the source.

Legend:
[1] = tested on: FLAP-mediated cellular LT formation in human neutrophils; design: method as in PMID 32045233; settings: previously identified; read-out: IC50, inhibition of cellular leukotriene (LT) biosynthesis by targeting FLAP; cited from earlier work
Human recombinant sEH [2] = target: T1, Human recombinant sEH (Homo sapiens, UniProt P34913); design: method as in PMID 32045233; settings: previously identified compound; cited from earlier work
T1 construct: made in house; host or cells: Sf9 insect cells, recombinant baculovirus from Dr. B. Hammock
T1 sequence (P34913 1-555): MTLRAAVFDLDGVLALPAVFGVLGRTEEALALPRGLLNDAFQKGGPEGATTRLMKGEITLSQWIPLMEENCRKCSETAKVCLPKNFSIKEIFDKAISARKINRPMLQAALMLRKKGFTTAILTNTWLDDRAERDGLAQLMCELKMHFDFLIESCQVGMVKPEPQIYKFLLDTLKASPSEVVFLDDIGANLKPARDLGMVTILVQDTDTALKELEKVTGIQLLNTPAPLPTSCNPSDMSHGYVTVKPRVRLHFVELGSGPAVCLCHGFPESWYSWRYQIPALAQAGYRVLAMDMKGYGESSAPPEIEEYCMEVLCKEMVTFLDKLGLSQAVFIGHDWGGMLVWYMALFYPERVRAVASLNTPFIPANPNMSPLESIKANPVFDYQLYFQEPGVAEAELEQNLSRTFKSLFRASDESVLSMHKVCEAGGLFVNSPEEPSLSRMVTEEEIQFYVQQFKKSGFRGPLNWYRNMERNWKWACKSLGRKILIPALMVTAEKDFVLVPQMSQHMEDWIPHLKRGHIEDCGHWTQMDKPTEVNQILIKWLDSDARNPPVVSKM

Human recombinant sEH [3] = target: T1, Human recombinant sEH; test: sEH cell-free fluorescence-based assay (PHOME substrate); type: biochemical; settings: means ± SEM, n = 3; for IC50: cell-free assay, human sEH; for remaining activity at 10 µM: residual activity at 10 μM, control = vehicle 100%
Description: Human recombinant sEH was expressed and purified as reported before.[46] In brief, Sf9 cells were infected with a recombinant baculovirus (kindly provided by Dr. B. Hammock, University of California, Davis, CA). Seventy-two hours post-transfection, cells were pelleted and sonicated (3 × 10 s at 4 °C) in lysis buffer containing NaHPO4 (50 mM, pH 8), NaCl (300 mM), glycerol (10%), EDTA (1 mM), phenylmethanesulfonyl fluoride (1 mM), leupeptin (10 μg/mL), and a soybean trypsin inhibitor (60 μg/mL). Supernatants after centrifugation at 100,000 × g (60 min, 4 °C) were subjected to benzylthio-sepharose-affinity chromatography in order to purify sEH by elution with 4-fluorochalcone oxide in PBS containing 1 mM DTT and 1 mM EDTA. Dialyzed and concentrated (Millipore Amicon-Ultra-15 centrifugal filter) enzyme solution was assayed for total protein with a Bio-Rad protein detection kit (Bio-Rad Laboratories, Munich, Germany), and the epoxide hydrolase activity was determined by using a fluorescence-based assay as described before.[47] Shortly, sEH was diluted in Tris buffer (25 mM, pH 7) supplemented with BSA (0.1 mg/mL) to an appropriate enzyme concentration and preincubated with test compounds or vehicle (0.1% DMSO) for 10 min at room temperature (RT). The reaction was started by the addition of 50 μM 3-phenyl-cyano(6-methoxy-2-naphthalenyl)methyl ester-2-oxiraneacetic acid (PHOME), a nonfluorescent compound that is enzymatically converted into fluorescent 6-methoxy-naphtaldehyde at RT. After 60 min, reactions were stopped by ZnSO4 (200 mM) and fluorescence was detected (λem 465 nm, λex 330 nm) using a NOVOstar microplate reader (BMG Labtech GmbH, Ortenberg, Germany), and potential fluorescence of test compounds was subtracted from the read-out, if required.

[4] = tested on: FLAP-mediated cellular LT formation in human neutrophils; test: FLAP-dependent 5-LO product formation in intact neutrophils; type: cell-based; settings: Neutrophil; for IC50: Homo sapiens, intact neutrophils challenged with 2.5 μM ionophore plus 20 μM arachidonic acid; for activity at 1 µM: 1 μM inhibitor, read-out: 5-LO product formation in neutrophils, remaining activity (% of control) at 1 μM; for activity at 1 µM / activity at 10 µM: human neutrophils, 2.5 μM Ca2+-ionophore A23187, means ± SEM, n = 4–5; for activity at 10 µM: 10 μM inhibitor, read-out: 5-LO product formation in neutrophils, remaining activity (% of control) at 10 μM
Description: Neutrophils were isolated from leukocyte concentrates obtained from freshly withdrawn peripheral blood of healthy adult male and female donors which were provided by the Institute of Transfusion Medicine, University Hospital Jena, Germany. The experimental protocol was approved by the ethical committee of the University Hospital Jena, and all methods were performed in accordance with the relevant guidelines and regulations. The leukocyte concentrates were mixed with dextran (from Leuconostoc spp. MW ∼40,000, Sigma Aldrich) for sedimentation of erythrocytes, and the supernatant was centrifuged on lymphocyte separation medium (Histopaque-1077, Sigma Aldrich). Contaminating erythrocytes in the pelleted neutrophils were removed by hypotonic lysis using distilled water. The neutrophils were washed twice in ice-cold PBS pH 7.4 and finally resuspended in PBS pH 7.4 plus 1 mg/mL glucose (PGC buffer).
Human neutrophils [5 × 10^6; in PGC buffer; incubation volume, 1 mL] were preincubated with 0.1% DMSO (vehicle) or with the compounds at 37 °C for 15 min. […] Samples were then subjected to solid-phase extraction on C18-columns (100 mg, UCT, Bristol, PA), and 5-LO products (LTB4 and its trans-isomers, and 5-H(p)ETE) were extracted and analyzed in the presence of internal standard PGB1 by RP-HPLC and UV detection as reported elsewhere.[45]

O=C(O)c1ccc2c(=O)n(Cc3ccccc3)c(SCc3ccc(Cl)c(Cl)c3)nc2c1 [Compound 5]
IC50 [1]: 870 nM | activity against sEH (in words) (Human recombinant sEH [2]): without any activity against sEH

CC(C)(C)CNC(=O)c1ccc2c(=O)[nH]c(SCc3ccc(Cl)c(Cl)c3)nc2c1 [Compound 38, 2-((3,4-Dichlorobenzyl)thio)-N-neopentyl-4-oxo-3,4-dihydroquinazoline-7-carboxamide]
IC50 (Human recombinant sEH [3]): 1600 ± 100 nM | IC50 [4]: < 10000 nM | activity at 1 µM [4]: 105 ± 3.1% | activity at 10 µM [4]: 34.9 ± 10.6% | melting point: 215.5 to 216.9 °C

CC(C)NC(=O)c1ccc2c(=O)[nH]c(SCc3ccccc3Cl)nc2c1 [Compound 45, 2-((2-Chlorobenzyl)thio)-N-isopropyl-4-oxo-3,4-dihydroquinazoline-7-carboxamide]
IC50 (Human recombinant sEH [3]): > 10000 nM | remaining activity at 10 µM (Human recombinant sEH [3]): 71% | IC50 [4]: > 10000 nM | activity at 1 µM [4]: 96.6 ± 6.7% | activity at 10 µM [4]: 70.3 ± 21.4% | melting point: 306.3 °C (dec.)

CC(C)(C)CNC(=O)c1ccc2c(=O)[nH]c(NCc3ccccc3Cl)nc2c1 [Compound 55, 2-((2-Chlorobenzyl)amino)-N-neopentyl-4-oxo-3,4-dihydroquinazoline-7-carboxamide]
IC50 (Human recombinant sEH [3]): > 10000 nM | remaining activity at 10 µM (Human recombinant sEH [3]): 68% | IC50 [4]: 2700 ± 800 nM | activity at 1 µM [4]: 77.9 ± 12.1% | activity at 10 µM [4]: 8.9 ± 3.6% | melting point: 176.7 to 178.7 °C
